# Source: patent USRE32534E, “Peptides, process for preparing the same and psychodepressant compositions containing the same” (Amano Pharmaceutical Co., Ltd., priority 1982, dated 1987)
# Where a SMILES comes first, the peptide text is derived from it.
# How the values were obtained:
# Assay type in all cases: in vivo
# Male ddy mice [1] = assay: Effect on climbing behavior induced by apomorphine (Pharmacological Test 7); details: control 9.8 ± 0.7
# Method: Effect on climbing behavior induced by apomorphine
# Male ddy mice (weighing 20 to 30 g) were used, with 10 mice in each group. Each mouse was placed into a cylindrical cage, 12 cm in diameter and 14 cm in height, made up of vertical rods of 2 mm in diameter spaced apart at a distance of 10 mm in a circular arrangement. The mouse was allowed to stand therein for 2 hours. Physiological saline containing a specified amount of a test compound (and 1 mM of sodium hydrogencarbonate) was subcutaneously given to one group of mice in a volume of 1 ml/10 g. (The same dose of saline only was given to a control group). […] The test was carried out in soundproof compartments.
# 0: All the four legs are on the floor.
# 2: At least three legs are on rods.
# The other compounds were tested in the same manner as above. The test was carried out in soundproof compartments. Student's t-test was resorted to for satistical treatment.
# male Wister rats [2] = assay: Effect on the fixed ratio responding in rats (FR20); details: s.c., 15 min before a 20 min session, dose giving count 50 with control as 100
# Method: Effect on the fixed ratio responding in rats
# The test was conducted according to the method described in Ahlenius S. and Engel J., Eur. J. Pharm., Vol. 15, 187-192 (1971).
# Male Wister rats (weighing 240 to 320 g) were placed into Skinner box (product of Bil-Medika Co., Ltd., Japan, adapted to give a feed when a lever within the box is pressed) and made to learn how to take the food. In this test, one feed was given to the rats when the lever was pressed 20 times, i.e., fixed ratio (FR) 20. The rats showing stable FR20 response were divided into groups each including four rats.
# Physiological saline (containing 1 mM of sodium hydrogencarbonate) containing a specified amount of a test compound was subcutaneously given to the rats of one group in a volume of 0.1 ml/100 g. (Physiological saline containing the above-mentioned amount of sodium hydrogencarbonate only was given to the control group). Fifteen minutes after the administration, the test animals were placed in the Skinner box, and the number of times the animals took the feed for 20 minutes was counted. The dose at which the count gained by the group of animals was 50, namely, ED50 value, was determined, with the count gained by the control group calculated as 100. The same procedure as above was repeated with use of the other test compounds.
# Male ICR mice = assay: Inhibitory effect on hyperlocomotion induced by administration of methylphenidate; details: s.c. with methylphenidate 10 mg/kg s.c., 1 hour after administration, 50 with control as 100
# Method: Inhibitory effect on hyperlocomotion induced by administration of methylphenidate
# Male ICR mice (weighing 24 to 30 g) were divided into groups, each including 10 mice. To one group of mice were subcutaneously given 10 mg/kg of methylphenidate and 0.1 ml/10 g of a saline solution of a specified amount of a test compound and 1 mM of sodium hydrogencarbonate. One hour after the administration, the test animals were checked for hyperlocomotion, which was measured with use of a device for measuring locomotion of small animals (wherein the motion of an animal shifts the center of graavity of the device to actuate a microswitch for the measurement of the amount of motion, see Folia Pharmacologica Japonica, 74, 629-639 (1978). For a control group, the same procedure as above was repeated except that the saline solution given was free from any test compound. The concentration of the test compound at which the result achieved by the group of animals was 50, namely, ED50 value, was determined, with the measurement obtained by the control group calculated as 100. The other compounds were tested in the same manner as above.
# male Wister rats [3] = assay: Effect on metabolism of amine in the brain; details: 1 mg/kg s.c., 1 hour after dosing
# Method: Effect on metabolism of amine in the brain
# Unfasted male Wister rats (weighing 180 to 220 g) were used. Peptide A or peptide B was subcutaneously given to the animal at a dose of 1 mg/kg, the head was irradiated with microwave 1 hour thereafter, and amine metabolite was extracted from the brain. First, removed tissues were homogenized with 1M formic acid and centrifuged at 20,000×g for 20 minutes, and the supernatant (1 ml) was shaken with 5 ml of ethyl acetate. The 3,4-dihydroxyphenylacetic acid (DOPAC), homovanillic acid (HVA) and 5-hydroxyindoleacetic acid (5-HIAA) in the ethyl acetate layer were analyzed by high-performance liquid chromatography under the following conditions. Chemcosorb, 5-ODS, 20 cm×4.6 mm I.D. was used for a separating column, and a mobile phase (0.1M KH2 PO4 (pH 5.0)-5 mM EDTA-2Na-5% acetonitrile) was passed through the column at a flow rate of 1 ml/min. The electrochemical detector was set to an oxidation potential of +0.8 V.
# Male ddy mice [4] = assay: Effect on hyperlocomotion induced by thyrotropin releasing hormone (TRH); details: s.c.
# Method: Effect on hyperlocomotion induced by thyrotropin releasing hormone (TRH)
# Male ddy mice (weighing 18 to 24.5 g) were used. The mice were placed into a transparent acrylic resin cage (26×37×11 cm) installed on Animex meter. Before experiment, the mice were allowed to habituate for 2 hours in the cage to fully lower the activity of the mice. After the completion of habituation, peptide A, peptide B or a diluent (physiological saline containing 1 mg/ml of sodium hydrogencarbonate) serving as a control was subcutaneously given to the mice. Thirty minutes thereafter, 5 mg/kg of TRH was intraperitoneally given to the animals. The activity counts during the period of 60 minutes following the administration of TRH was measured. Student's t-test was resorted to for statistical treatment.
# male Wister rats [5] = assay: Effect on yawning behavior induced by apomorphine; details: s.c.
# Method: Effect on yawning behavior
# Male Wister rats (weighing 200 to 300 g) were used, with 10 rats in each group. The rat was placed into a plastics cage (17×24×12 cm) with a floor mat and was then habituated for 30 minutes. Peptide A, peptide B, CCK-8 or the above-mentioned diluent serving as a control was subcutaneously given to the animal. Thirty minutes thereafter, 0.03 mg/kg of apomorphine was subcutaneously given to the animal. The number of yawns induced by apomorphine was counted during a period of 30 minutes following administration of apomorphine. The test was conducted in a soundproof compartment for each animal. Wilcoxon rank-sum test was resorted to for statistical treatment.
# test animals = assay: Induction of catalepsy in test animals
# [6] = Induction of yawning behavior by the peptide itself; details: yawning thought to be induced by a reduction in the amount of dopamine
Molecule,"ED50, inhibition of FR20 responding (male Wister rats [2]) [mg/kg]",Increase of DOPAC content in hypothalamus (male Wister rats [3]),"Influence on content of metabolite (DOPAC, HVA, 5-HIAA) in frontal cortex, limbic forebrain, and striatum (male Wister rats [3])",Effect on TRH-induced hyperlocomotion (in words) (Male ddy mice [4]),other results
Pht--Tyr(SO3 H)--Met--Gly--Trp--Met--Asp--Phe--NH2 [Peptide F],0.0167,,,,"Average: Mean ± S.E. (total of 7 scores), climbing behavior (Male ddy mice [1]; 0.1 mg/kg s.c.): 7.7 ± 0.6; Average: Mean ± S.E. (total of 7 scores), climbing behavior (Male ddy mice [1]; 0.3 mg/kg s.c.): 8.0 ± 0.8; Average: Mean ± S.E. (total of 7 scores), climbing behavior (Male ddy mice [1]; 1.0 mg/kg s.c.): 6.8 ± 0.8; ED50, inhibition of methylphenidate-induced hyperlocomotion (Male ICR mice): 0.2513 mg/kg"
"CSCC[C@H](NC(=O)[C@H](Cc1ccc(OS(=O)(=O)O)cc1)NC(=O)[C@H](CC(=O)O)NC(=O)CCCC(=O)O)C(=O)NCC(=O)N[C@@H](Cc1c[nH]c2ccccc12)C(=O)N[C@@H](CCSC)C(=O)N[C@@H](CC(=O)O)C(=O)N[C@@H](Cc1ccccc1)C(N)=O [Peptide A, Glt--Asp--Tyr(SO3 H)--Met--Gly--Trp--Met--Asp--Phe--NH2]",,about 60%,Neither of peptide A and peptide B was found to influence,inhibit the hyperlocomotion induced by TRH,
"CSCC[C@H](NC(=O)[C@H](Cc1ccc(OS(=O)(=O)O)cc1)NC(=O)CCCC(=O)O)C(=O)NCC(=O)N[C@@H](Cc1c[nH]c2ccccc12)C(=O)N[C@@H](CCSC)C(=O)N[C@@H](CC(=O)O)C(=O)N[C@@H](Cc1ccccc1)C(N)=O [Peptide E, Glt--Tyr(SO3 H)--Met--Gly--Trp--Met--Asp--Phe--NH2] (HELM PEPTIDE1{[O=C(O)CCCC(=O)[*:2]].[O=C([C@H](Cc1ccc(OS(=O)(=O)O)cc1)N[*:1])[*:2]].M.G.W.M.D.F.[am]}$$$$V2.0)",0.004,,,,
"CSCC[C@H](NC(=O)[C@H](Cc1ccc(OS(=O)(=O)O)cc1)NC(=O)[C@H](CC(=O)O)NC(=O)[C@@H]1CCC(=O)N1)C(=O)NCC(=O)N[C@@H](Cc1c[nH]c2ccccc12)C(=O)N[C@@H](CCSC)C(=O)N[C@@H](CC(=O)O)C(=O)N[C@@H](Cc1ccccc1)C(N)=O [Peptide B, pGlu--Asp--Tyr(SO3 H)--Met--Gly--Trp--Met--Asp--Phe--NH2]",,about 60%,Neither of peptide A and peptide B was found to influence,inhibit the hyperlocomotion induced by TRH,
"CSCC[C@H](NC(=O)[C@H](Cc1ccc(OS(=O)(=O)O)cc1)NC(=O)[C@@H](N)CC(=O)O)C(=O)NCC(=O)N[C@@H](Cc1c[nH]c2ccccc12)C(=O)N[C@@H](CCSC)C(=O)N[C@@H](CC(=O)O)C(=O)N[C@@H](Cc1ccccc1)C(N)=O [CCK-8, Asp--Tyr(SO3 H)--Met--Gly--Trp--Met--Asp--Phe--NH2]",,,,,"Effect on yawning behavior induced by apomorphine (in words) (male Wister rats [5]): is not inhibited by CCK-8; Induction of catalepsy (side effect, in words) (test animals): induces catalepsy; Induction of yawning behavior (in words) [6]: induces no yawning behavior whatsoever"
